Experimental findings from the NIST ThermoML archive (doi:10.1016/j.jct.2011.11.026) are described below.

Numbers after ± are expanded uncertainties.

The conditions of series [1]: Crystal; DTA.
The nature of series [2]: Molar enthalpy of transition or fusion. The settings on record: Crystal; DSC.
Series [3] is described as follows: molar heat capacity at constant pressure. As to conditions: 298.15 K; 101.33 kPa; Crystal; Small sample (50 mg) DSC.

For the compound `NS(=O)(=O)c1ccccc1` [benzenesulfonamide], in series [1], the Normal melting temperature was found to be 152.32 ± 0.39 °C. The “Molar enthalpy of transition or fusion” value in series [2] is 5.67 ± 0.131 kcal/mol. The “molar heat capacity at constant pressure” value in series [3] is 172.91 ± 9.4 J/K/mol.
Taken in the same sequence, the figures for `Cc1ccc(S(N)(=O)=O)cc1` [p-toluenesulfonamide] were 137.27 ± 0.39 °C, 5.72 ± 0.174 kcal/mol and 205.46 ± 14 J/K/mol.
Turning to `Cc1ccccc1S(N)(=O)=O` [o-toluenesulfonamide], the “Molar enthalpy of transition or fusion” value in series [2] came out at 6.75 ± 0.179 kcal/mol. Further, the “molar heat capacity at constant pressure” value in series [3] is given as 193.48 ± 21 J/K/mol.
For `Nc1ccccc1S(N)(=O)=O` [2-aminobenzenesulfonamide], the Normal melting temperature in series [1] was 153.46 ± 0.39 °C. In series [2], the “Molar enthalpy of transition or fusion” value was determined as 5.6 ± 0.129 kcal/mol. Moreover, in series [3], the “molar heat capacity at constant pressure” value was 173.93 ± 21 J/K/mol.
In the case of `Nc1ccc(S(N)(=O)=O)cc1` [4-aminobenzenesulfonamide], in series [1], the Normal melting temperature was found to be 164.53 ± 0.39 °C. Also, the “Molar enthalpy of transition or fusion” value in series [2] amounted to 5.33 ± 0.122 kcal/mol. Moreover, the “molar heat capacity at constant pressure” value in series [3] is 199.76 ± 10 J/K/mol.
